Experiments:
Type in all cases: functional
Abutilon theophrasti = assay: Herbicidal activity against Abutilon theophrasti (velvetleaf) plant at 1200 g/ha applied as spray during post-emergence after 2 weeks under green house conditions
Solanum lycopersicum = assay: Herbicidal activity against Solanum lycopersicum (tomato) plant at 1200 g/ha applied as spray during post-emergence after 2 weeks under green house conditions
Tagetes = assay: Herbicidal activity against Tagetes (marigold) plant at 1200 g/ha applied as spray during post-emergence after 2 weeks under green house conditions

Row | SMILES | Activity (Abutilon theophrasti) | Activity (Solanum lycopersicum) | Activity (Tagetes)
1 | COc1cc(N2C(=O)CN3CCCCC3C2=O)c(F)cc1Cl (configuration not stated) | 50% | 15% | 0%
2 | O=C1CN2CCCCC2C(=O)N1c1cc(OC2CCCC2)c(Cl)cc1F (configuration not stated) | 90% | 60% | 10%
3 | C#CCOc1cc(N2C(=O)CN(C)CC2=O)c(F)cc1Cl | 95% | 75% | 0%
4 | O=C1CN2CCCCC2C(=O)N1c1ccc(Cl)cc1F (configuration not stated) | 80% | 35% | 15%
5 | O=C1CN2CCCCC2C(=O)N1c1cc(Cl)c(Cl)cc1F (configuration not stated) | 90% | 75% | 0%
6 | O=C1CN2CCCC2C(=O)N1c1cc(OC2CCCC2)c(Cl)cc1F (configuration not stated) | 50% | 0% | 0%
7 | CC(C)(C)N1CC(=O)N(c2cc(OC3CCCC3)c(Cl)cc2F)C(=O)C1 | 25% | 0% | 0%
8 | CC(C)OC(=O)c1cc(N2C(=O)CN(Cc3ccccc3)CC2=O)c(F)cc1Cl | 0% | 10% | 0%
9 | CN1CC(=O)N(c2cc(OC3CCCC3)c(Cl)cc2F)C(=O)C1 | 75% | 0% | 0%

— ChEMBL document CHEMBL3045206, “A facile synthesis of novel herbicidal 1-phenyl-piperazine-2,6-diones” (2005)
